Test results reported in patent US9321809B2, “Macrocyclic compounds for suppressing replication of hepatitis C virus” (Ginkgo Pharma Co., Ltd., priority 2012, dated 2016).
Like-named read-outs stand apart in the source and are kept apart here.

Tests used:
[1] = test system: HCV replicon-containing huh-7 cells (replicon 1b); assay: HCV Replicon Assay (luciferase readout); format: cell-based; settings: Hepatitis C virus; HCV replicon 1b in huh-7 cells, 48 h incubation, 1% DMSO, luciferase signal; read-out: EC50 (EC 50 on replicon 1b)
Description: Compounds of formuala (I) are tested for the ability to inhibit viral replication of the Hepatitis C viruses by the following in vitro assays.
DMEM (Life Technologies #41965-039) was supplemented with 10% FBS, 2 mM L-glutamine (Life Technologies #25030-024), penicillin (100 units/ml)/streptomycin (100 micrograms/ml) (Life Technologies #15140-114), 1× non-essential amino acids (Life Technologies #11140-035).
Complete media was prepared by mixing FBS, DMEM media with Geneticin (G418). The compete media was preincubated at 37° C. in a CO2 incubator. Then, HCV replicon-containing huh-7 cells (V. Lohmann et. al. Science, 285, (1999)110-113) was taken out from 37° C. incubator. The residual medium was absorbed, and the cells were washed with PBS. After washing fluid was removed, 1 ml 0.25% trypsin/0.02% EDTA solution. The cells were washed by the above trypsin/EDTA solution to make sure that each cell was cleaned. After the trypsin/EDTA solution was absorbed, the mixture was incubated at 37° C. in a CO2 incubator for 3-5 minutes. Morphological changes were observed by inverted microscope, till the cells were detached from the wall of container completely.
3 ml of complete media was added to make the cells to suspend. The cells are counted with hematometer. Appropriate volumes of the complete media was added to adjust the cell density to 100,000/ml. Cells were plated with 100 μl of suspension at 10,000/well of 96 well plate. Plates were placed into 37° C. 5% CO2 incubator for 24 h.
Preparation of Drug Solution:
Drugs were diluted under aseptic conditions.
Stock solutions may be prepared before the assay, which means that the test compounds are dissolved in 100% DMSO to afford a final concentration of 2 mM. Before the 96 well culture was completed, the stock solution was diluted with culter media to 100 fold of the final concentration (100× solution).
96-well plates were taken out from 37° C. CO2 incubator and morphological changes were observed by inverted microscope. In a ventilator, 1 μl of 100× drug solution was added to wells of 96 well plate until the final concentration of DMSO in the mixture is 1%. The plates were incubated at 37° C. in a CO2 environment for 48 h. 30 μl of Stead-G1® Luciferase Assay System (bought from Promega) was added to each well of 96 well plates and each plate is shaken in a plate shaker for 5 minutes to ensure cells cleavaged completely. The fluorescence signal was quantitated in a Perkin-Elmer plate reader (Envision) and integral time was setted to be 2 second. The following data were achieved after recording and analyzing the data.

[2] = liver microsome metabolity assay (PK Assays); format: in vitro ADME, human; settings: pH 7.4
Description: The following liver microsome metabolity assays validated the PK properties of compounds of Formula (I). 1. Buffer A: 1.0 L 0.1 M potassium phosphate monobasic buffer (including 1.0 mM EDTA); Buffer B: 1.0 L 0.1 M dipotassium phosphate buffer (including 1.0 mM EDTA); Buffer C: 0.1 M potassium phosphate buffer (including 1.0 mM EDTA), pH 7.4, add Buffer A to 700 ml of Buffer B until pH is 7.4. 2. Drug solution: 500 μM solution: a 10 μL (10 mM) DMSO was added to 190 μL ACN; 1.5 μM solution (dissolved in human microsome and the final concentration of microsome is 0.75 mg/mL): 1.5 μL (500 μM) of drug solution and 18.75 μL of human microsome (20 mg/mL) were added to 479.75 uL of Buffer C. 3. NADPH solution (6 mM, dissolved in Buffer C). 4. 30 µL of drug solution (1.5 μM) was added to a 96-well plate, setting locations for different time points; Preincubated for 10 minutes at 37° C. 5. […] of NADPH (6 mM) was added to the location for 45-min time point; and timing started. 6. At 30, 15 and 5 min, […] of NADPH (6 mM) was added to each corresponding locations, respectively. 7. After the reaction was completed mins), 135 μL acetonitrile was added to the locations for all different time points; 15 µL of NADPH (6 mM) was added to the location for 0 min time point. 8. Centrifugated at 3220 g for 10 min. 9. 50 μL of supernatant was collected and mixed with 50 μL, of ultrapure water. Samples were sent to LC/MS for analysis.

SMILES | EC50 [1] [nM] | half-life at 1 µM ([2]; human, microsomes) [h] | half-life at 1 µM ([2]; human liver microsomes, human microsome 0.75 mg/mL, 1.5 μM drug solution, NADPH, 37° C., time points 0-45 min, LC/MS, read-out: t1/2) [h]
C=C[C@@H]1C[C@]1(NC(=O)[C@@H]1C[C@@H]2CN1C(=O)[C@H](C(C)(C)C)NC(=O)[C@@H](NC(=O)OC(C)(C)C)COC/C=C/c1cccc3c1CN(C3)C(=O)O2)C(=O)NS(=O)(=O)C1CC1 [Compound IIa-1, tert-butyl N-[(1R,12E,17S,20S,23S)-20-tert-butyl-23-{[(1R,2S)-1-[(cyclopropanesulfonyl)carbamoyl]-2-ethenylcyclopropyl]carbamoyl}-3,18,21-trioxo-2,15-dioxa-4,19,22-triazatetracyclo[20.2.1.1^4,7.0^6,11]hexacosa-6,8,10,12-tetraen-17-yl]carbamate] | < 10 | 3.3 | –
C=C[C@@H]1C[C@]1(NC(=O)[C@@H]1C[C@@H]2CN1C(=O)[C@H](C1CCCCC1)NC(=O)[C@@H](NC(=O)OC(C)(C)C)COC/C=C/c1cccc3c1CN(C3)C(=O)O2)C(=O)NS(=O)(=O)C1CC1 [Compound IIa-16, tert-butyl N-[(1R,12E,17S,20S,23S)-20-cyclohexyl-23-{[(1R,2S)-1-[(cyclopropanesulfonyl)carbamoyl]-2-ethenylcyclopropyl]carbamoyl}-3,18,21-trioxo-2,15-dioxa-4,19,22-triazatetracyclo[20.2.1.1^4,7.0^6,11]hexacosa-6,8,10,12-tetraen-17-yl]carbamate] | < 10 | 3.22 | –
C=C[C@@H]1C[C@]1(NC(=O)[C@@H]1C[C@@H]2CN1C(=O)[C@H](C1CCCCC1)NC(=O)[C@@H](NC(=O)OC(C)(C)C)COC/C=C/c1cc3c(nccc3cc1OC)O2)C(=O)NS(=O)(=O)C1CC1 [Compound IIb-3, tert-butyl N-[(3R,5S,8S,11S,15E)-8-cyclohexyl-5-{[(1R,2S)-1-[(cyclopropanesulfonyl)carbamoyl]-2-ethenylcyclopropyl]carbamoyl}-18-methoxy-7,10-dioxo-2,13-dioxa-6,9,23-triazatetracyclo[15.6.2.1^3,6.0^20,24]hexacosa-1(23),15,17(25),18,20(24),21-hexaen-11-yl]carbamate] | < 10 | 3.83 | –
CC[C@@H]1C[C@]1(NC(=O)[C@@H]1C[C@@H]2CN1C(=O)[C@H](C1CCCCC1)NC(=O)[C@@H](NC(=O)OC(C)(C)C)COC/C=C/c1cc3c(nccc3cc1OC)O2)C(=O)NS(=O)(=O)C1CC1 [Compound IIb-5, tert-butyl N-[(3R,5S,8S,11S,15E)-8-cyclohexyl-5-{[(1R,2R)-1-[(cyclopropanesulfonyl)carbamoyl]-2-ethylcyclopropyl]carbamoyl}-18-methoxy-7,10-dioxo-2,13-dioxa-6,9,23-triazatetracyclo[15.6.2.1^3,6.0^20,24]hexacosa-1(23),15,17(25),18,20(24),21-hexaen-11-yl]carbamate] | 10 to 50 | – | –
C=C[C@@H]1C[C@]1(NC(=O)[C@@H]1C[C@@H]2CN1C(=O)[C@H](C1CCCCC1)NC(=O)[C@@H](NC(=O)OC(C)(C)C)COC/C=C/c1cc3c(nccc3cc1OC)O2)C(=O)O [Compound IIb-7, tert-butyl N-[(3R,5S,8S,11S,15E)-8-cyclohexyl-5-{[(1R,2S)-1-hydroxycarbonyl-2-ethenylcyclopropyl]carbamoyl}-18-methoxy-7,10-dioxo-2,13-dioxa-6,9,23-triazatetracyclo[15.6.2.13,6.020,24]hexacosa-1(23),15,17(25),18,20(24),21-hexaen-11-yl]carbamate] | 500 to 20000 | – | –
CC[C@@H]1C[C@]1(NC(=O)[C@@H]1C[C@@H]2CN1C(=O)[C@H](C(C)(C)C)NC(=O)OCC(C)(C)CCCCc1cccc3c1CN(C3)C(=O)O2)C(=O)NS(=O)(=O)C1CC1 [MK7009, reference compound] | < 10 | – | 0.433
